Experimental findings from patent US10981917B2, “Heterocyclic compound, its preparation method, and pharmaceutical composition comprising the same” (Daewoong Pharmaceutical Co., Ltd., priority 2017, dated 2021) are described below.

pIC50: −log10 of the molar value.

Chain of PRS (prolyl-tRNA synthetase) protein, PRS portion of EPRS (P07814 1007-1512): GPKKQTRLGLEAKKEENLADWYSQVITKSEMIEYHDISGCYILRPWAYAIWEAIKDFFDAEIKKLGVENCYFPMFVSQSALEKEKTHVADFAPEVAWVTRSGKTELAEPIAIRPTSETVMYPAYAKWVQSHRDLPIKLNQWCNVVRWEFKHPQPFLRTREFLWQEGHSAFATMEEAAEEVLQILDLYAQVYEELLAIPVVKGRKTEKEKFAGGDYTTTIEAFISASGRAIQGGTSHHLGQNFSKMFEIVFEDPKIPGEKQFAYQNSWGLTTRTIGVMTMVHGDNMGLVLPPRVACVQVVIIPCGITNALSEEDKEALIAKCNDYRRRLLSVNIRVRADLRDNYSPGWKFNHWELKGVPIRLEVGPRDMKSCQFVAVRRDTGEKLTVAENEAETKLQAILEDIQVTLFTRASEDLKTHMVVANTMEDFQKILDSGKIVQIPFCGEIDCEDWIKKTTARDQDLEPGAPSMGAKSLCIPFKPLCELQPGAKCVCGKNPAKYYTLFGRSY

This experiment addresses PRS (prolyl-tRNA synthetase) protein, PRS portion of EPRS (Homo sapiens (Human), UniProt P07814). In words: PRS enzyme activity inhibition experiment ([3H]proline, liquid scintillation). In kind it is biochemical. To be noted: purified PRS protein, 37° C. for 5 to 10 minutes. The protocol: In order to confirm the biological activities of the compounds prepared in Examples, % inhibition or IC50 values of PRS enzyme ([…]) activities were calculated.
Specifically, the portion corresponding to PRS in cDNA of EPRS was subcloned, and the obtained high-purity PRS protein was purified and used in the experiment. The compounds (1 μM) prepared in Examples were added into the reaction buffer (20 mM KPO4 (pH 7.4), 6 mM MgAc, 5 mM ATP, […] tRNA, 0.5 mM DTT, […][^3H]proline (1 mCi/mL)) and allowed to react at 37° C. for 5 to 10 minutes. The reaction was terminated with 3M paper that was in advance dried by addition of 5% TCA. The radioactivity was measured using a liquid scintillation counter.
% Inhibition and IC50 values of the respective compounds were calculated and analyzed using Microsoft Excel or Sigma Plot 8.0. In Tables 1 to 3, the results are divided into A, B and C according to the range of IC50. The case where the derived IC50 is 100 nM or less is represented by “A”, the case where the IC50 is 100 to 500 nM is represented by “B”, and the case where the IC50 is 500 nM or higher is represented by “C”.
A word on the pIC50: it is the IC50 on a negative log10 scale, so that one unit is a factor of ten. `O[C@H]1CCCN[C@@H]1CCCn1cnc2c(N3CCCCC3)cccc21` [Example 19, (2R,3S)-2-(3-(4-(piperidin-1-yl)-1H-benzo[d]imidazol-1-yl)propyl)piperidin-3-ol] gave a pIC50 not above 6.30.

The compound `O[C@H]1CCCN[C@@H]1CCCn1cnc2c(-c3cccc(F)c3)cccc21` [Example 20, (2R,3S)-2-(3-(4-(3-fluorophenyl)-1H-benzo[d]imidazol-1-yl)propyl)piperidin-3-ol] had a pIC50 not above 6.30.

`O[C@H]1CCCN[C@@H]1CCCn1cnc2c(-c3cccc(Cl)c3)cccc21` [Example 21, (2R,3S)-2-(3-(4-(3-chlorophenyl)-1H-benzo[d]imidazol-1-yl)propyl)piperidin-3-ol] showed a pIC50 not above 6.30.

Regarding `O[C@H]1CCCN[C@@H]1CCCn1cnc2cc(-c3cccc(F)c3)ccc21` [Example 22, (2R,3S)-2-(3-(5-(3-fluorophenyl)-1H-benzo[d]imidazol-1-yl)propyl)piperidin-3-ol], the pIC50 is not above 6.30.

As for `O[C@H]1CCCN[C@@H]1CCCn1cnc2ccc(-c3ccccc3F)cc21` [Example 23, (2R,3S)-2-(3-(6-(2-fluorophenyl)-1H-benzo[d]imidazol-1-yl)propyl)piperidin-3-ol], the pIC50 is 6.30 to 7.00.

Regarding `O[C@H]1CCCN[C@@H]1CCCn1cnc2ccc(-c3cccc(F)c3)cc21` [Example 24, (2R,3S)-2-(3-(6-(3-fluorophenyl)-1H-benzo[d]imidazol-1-yl)propyl)piperidin-3-ol], the negative-log IC50 (pIC50) is not below 7.00.

As for `O[C@H]1CCCN[C@@H]1CCCn1cnc2ccc(-c3ccc(F)cc3)cc21` [Example 25, (2R,3S)-2-(3-(6-(4-fluorophenyl)-1H-benzo[d]imidazol-1-yl)propyl)piperidin-3-ol], the pIC50 was not above 6.30.

In turn, `O[C@H]1CCCN[C@@H]1CCCn1cnc2cccc(-c3ccccc3F)c21` [Example 26, (2R,3S)-2-(3-(7-(2-fluorophenyl)-1H-benzo[d]imidazol-1-yl)propyl)piperidin-3-ol] had a pIC50 not above 6.30.

`O[C@H]1CCCN[C@@H]1CCCn1cnc2cccc(-c3cccc(F)c3)c21` [Example 27, (2R,3S)-2-(3-(7-(3-fluorophenyl)-1H-benzo[d]imidazol-1-yl)propyl)piperidin-3-ol] gave a pIC50 of 6.30 to 7.00.

`O[C@H]1CCCN[C@@H]1CCCn1cnc2cccc(-c3ccc(F)cc3)c21` [Example 28, (2R,3S)-2-(3-(7-(4-fluorophenyl)-1H-benzo[d]imidazol-1-yl)propyl)piperidin-3-ol] had a pIC50 of 6.30 to 7.00.

On to `O[C@H]1CCCN[C@@H]1CCCn1cnc2cc(-c3cn[nH]c3)ccc21` [Example 29, (2R,3S)-2-(3-(5-(1H-pyrazol-4-yl)-1H-benzo[d]imidazol-1-yl)propyl)piperidin-3-ol], for which the pIC50 was not above 6.30.

In the case of `O[C@H]1CCCN[C@@H]1CCCn1cnc2ccc(-c3cn[nH]c3)cc21` [Example 30, (2R,3S)-2-(3-(6-(1H-pyrazol-4-yl)-1H-benzo[d]imidazol-1-yl)propyl)piperidin-3-ol], the negative logarithm of the IC50 (pIC50) was 6.30 to 7.00.

With `O[C@H]1CCCN[C@@H]1CCCn1cnc2cccc(-c3cn[nH]c3)c21` [Example 31, (2R,3S)-2-(3-(7-(1H-pyrazol-4-yl)-1H-benzo[d]imidazol-1-yl)propyl)piperidin-3-ol], the pIC50 was 6.30 to 7.00.

For `O[C@H]1CCCN[C@@H]1CCCn1cnc2cc(F)c(Cl)cc21` [Example 32, (2R,3S)-2-(3-(6-chloro-5-fluoro-1H-benzo[d]imidazol-1-yl)propyl)piperidin-3-ol], the pIC50 is 6.30 to 7.00.

`O[C@H]1CCCN[C@@H]1CCCn1cnc2cc(F)c(Br)cc21` [Example 33, (2R,3S)-2-(3-(6-bromo-5-fluoro-1H-benzo[d]imidazol-1-yl)propyl)piperidin-3-ol] gave a pIC50 of 6.30 to 7.00.

For the compound `O[C@H]1CCCN[C@@H]1CCCn1cnc2cc(Cl)c(F)cc21` [Example 34, (2R,3S)-2-(3-(5-chloro-6-fluoro-1H-benzo[d]imidazol-1-yl)propyl)piperidin-3-ol], the pIC50 was 6.30 to 7.00.
